Reference: article PMC5332298 (Nature cell biology, 2017)
Where two headings read alike, the source gives them in different places. Each block holds one molecule with its values, some of them ahead of it.

Experiments:
LINK-A-PIP3 interaction [1] = assay: RNA-lipid vesicles; type: binding; settings: 100:1 molar ratio to PIP3
LINK-A-PIP3 interaction [2] = assay: RNA-lipid overlay assay on PIP arrays with soluble competitors; type: binding; settings: 100:1 molar ratio to RNA
[3] = system: LINK-A-PIP3 interaction in MDA-MB-231 cells; assay: RIP assay using a PIP3 antibody; settings: MDA-MB-231 cells treated with PI3K inhibitor
AKT-PIP3 binding = AKT-PIP3 binding (Homo sapiens, UniProt P31749); assay: biochemical
Chain of AKT-PIP3 binding (P31749 whole entry): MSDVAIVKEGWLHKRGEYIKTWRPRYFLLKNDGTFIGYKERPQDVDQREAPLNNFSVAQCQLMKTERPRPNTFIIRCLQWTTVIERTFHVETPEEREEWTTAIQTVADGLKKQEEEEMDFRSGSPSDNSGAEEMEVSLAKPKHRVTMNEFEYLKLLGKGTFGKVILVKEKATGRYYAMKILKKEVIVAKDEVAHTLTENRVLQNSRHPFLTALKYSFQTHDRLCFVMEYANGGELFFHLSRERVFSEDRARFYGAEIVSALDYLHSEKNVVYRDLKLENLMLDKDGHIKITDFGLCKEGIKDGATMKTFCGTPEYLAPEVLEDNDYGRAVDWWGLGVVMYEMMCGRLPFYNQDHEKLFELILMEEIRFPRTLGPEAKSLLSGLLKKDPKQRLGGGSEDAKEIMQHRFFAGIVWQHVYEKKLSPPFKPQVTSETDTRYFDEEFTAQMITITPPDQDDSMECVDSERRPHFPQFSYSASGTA

MDA-MB-231 spheroids [4] = assay: 3-D spheroid fluorometric proliferation/viability assay; type: cell-based, Human; settings: for proliferation (growth) of spheroids: 50 nM MK2206 or 25 nM perifosine, 4 days
MDA-MB-231 spheroids [5] = assay: 3D spheroid BME cell invasion assay; type: cell-based, Human; settings: 50 nM MK2206 or 25 nM perifosine, 4 days
[6] = system: MS2-LINK-A-PIP3 interaction in MDA-MB-231 cells; assay: MS2-TRAP assay with PIP3 mass ELISA; type: cell-based, Human; settings: cell permeable competitor 100 µM, 2 hrs
[7] = target: AKT (His6-tagged recombinant, ThermoFisher) (UniProt P31749 1-480); assay: Alpha competition assay
Chain of AKT (His6-tagged recombinant, ThermoFisher) (P31749 whole entry): as above

Molecule: O=P(O)(O)OC1[C@H](O)[C@H](OP(=O)(O)O)C(OP(=O)(O)O)[C@H](OP(=O)(O)O)[C@H]1O (stereo partly drawn) [IP4, D-myo-Inositol 1,3,4,5-tetrakisphosphate]
effect of competitor on recruitment of LINK-A ΔPC to PIP3-containing GUVs (LINK-A-PIP3 interaction [1]): abolished
effect of soluble competitor on LINK-A binding to PIP array (LINK-A-PIP3 interaction [2]): abolished

Molecule: O=c1cc(N2CCOCC2)oc2c(-c3ccccc3)cccc12 [LY294002]
LINK-A-PIP3 interaction in vivo (RIP with PIP3 antibody) [3]: abolished

Molecule: O=P(O)(O)OC1[C@@H](OP(=O)(O)O)[C@H](OP(=O)(O)O)C(O)[C@H](OP(=O)(O)O)[C@H]1OP(=O)(O)O (stereo partly drawn) [PI(1,3,4,5,6)P5]
MS2-LINK-A-associated PIP3 (PIP3 mass ELISA) [6]: impaired

B1: LINK-A nt 1100-1117 WT (structured_RNA)
RNA: CAGGGUAGACUCGCUCUG
binding result [7]: binds

Second part, led by results:

antagonism of the inhibitory effect by FL LINK-A (AKT-PIP3 binding; in vitro, presence of FL LINK-A): 753 fold
Molecule: NC1(c2ccc(-c3nc4ccn5c(=O)[nH]nc5c4cc3-c3ccccc3)cc2)CCC1 [MK2206]
proliferation (growth) of spheroids (MDA-MB-231 spheroids [4]; LINK-A PIP3-BM−/− spheroids): efficiently inhibited
proliferation (growth) of spheroids (MDA-MB-231 spheroids [4]; LINK-A PIP3BM+/+ spheroids): undetectable effect
invasion of spheroids (MDA-MB-231 spheroids [5]; LINK-A PIP3-BM−/− spheroids): efficiently inhibited
invasion of spheroids (MDA-MB-231 spheroids [5]; LINK-A PIP3BM+/+ spheroids): undetectable effect

antagonism of the inhibitory effect by FL LINK-A (AKT-PIP3 binding): 140 fold
IC50 (AKT-PIP3 binding; IC50 for inhibiting AKT-PIP3 binding): 4.8 µM
Molecule: CCCCCCCCCCCCCCCCCCOP(=O)([O-])OC1CC[N+](C)(C)CC1 [perifosine]
proliferation (growth) of spheroids (MDA-MB-231 spheroids [4]; LINK-A PIP3-BM−/− spheroids): efficiently inhibited
proliferation (growth) of spheroids (MDA-MB-231 spheroids [4]; LINK-A PIP3BM+/+ spheroids): undetectable effect
sensitization of LINK-A PIP3-BM−/− spheroids vs PIP3-BM+/+ (MDA-MB-231 spheroids [4]; spheroid viability IC50): about 20,000 fold
invasion of spheroids (MDA-MB-231 spheroids [5]; LINK-A PIP3-BM−/− spheroids): efficiently inhibited
invasion of spheroids (MDA-MB-231 spheroids [5]; LINK-A PIP3BM+/+ spheroids): undetectable effect

effect of soluble competitor on LINK-A binding to PIP array (LINK-A-PIP3 interaction [2]): abolished
Molecule: Phosphatidylinositol-3,4,5-trisphosphate [PIP3]
